Measured values from patent US12371507B2, “CDCP1 antibodies and antibody drug conjugates” (Beth Israel Deaconess Medical Center, priority 2018, dated 2025).
Non-standard residues stand in square brackets, D forms with d. Residues, ends and D or L forms follow the SMILES beside them. *: point of attachment. Dolaproine = CO[C@@H]([C@@H]1CCCN1)[C@@H](C)C(=O)O; Dil = CC[C@H](C)[C@H](NC)[C@@H](CC(=O)O)OC; Doe = c1ccc(C[C@H](N*)c2nccs2)cc1; Aib = CC(C)(N)C(=O)O

Assays:
[1] = test system: H2009 cells; assay: In vitro cytotoxicity (ATPlite viability, four days); format: cell-based; settings: Homo sapiens, NCI-H2009; H2009, lung adenocarcinoma
Procedure: (§1) Cells were incubated in a 6-fold 9-point dilution series of respective ADCs ranging in concentration from 600 nM to 0.357225 pM. […] The mean of luminescence counts of triplicate samples were normalized to a medium only control (growth medium no ADC) to calculate percent viability.

[2] = test system: H1299 cells; assay: as above; format: cell-based; settings: Homo sapiens, NCI-H1299; H1299, NSCLC
Procedure: as §1

[3] = test system: primary human aortic smooth muscle cells (HuAoSMC); assay: as above; format: cell-based
Procedure: as §1

[4] = test system: PE/CA-PJ-49 cells; assay: as above; format: cell-based; settings: Homo sapiens; PE/CA-PJ-49, oral squamous cell carcinoma
Procedure: as §1

[5] = test system: PC3 cells; assay: as above; format: cell-based; settings: Homo sapiens, PC-3; PC3, prostate cancer
Procedure: as §1

[6] = test system: SCC-25 cells; assay: as above; format: cell-based; settings: Homo sapiens; SCC-25, head and neck cancer
Procedure: as §1

[7] = test system: NSCLC model PDX-NSX-15137; assay: PDX tumor growth versus standard of care; format: in vivo, mouse; settings: 22.5 mg/kg
Procedure: (§2) The effects of ADCs were evaluated on the in vivo growth of human tumor patient-derived xenografts (PDX) implanted into immunodeficient NOD/SCID mice. To establish initial PDX cell lines, primary human tumor resection samples were procured from clinical sites following Institutional Review Board for the Protection of Human Subjects approval and in accordance with HIPAA regulations. Tumor fragments were implanted subcutaneously in mice and animals were monitored for health status daily and for tumor growth by visual inspection twice per week. Once the tumors were palpable, measurements of tumor volume began in order to track tumor growth and estimate cell doubling time. Tumor volume was estimated using the equation V=(A*B^2)/2 where A is the long axis and B is the short axis. When tumors reached a volume of 500 mm^3 to 1,500 mm^3, they were harvested for study and for re-transplant in naïve mice as a PDX line. Tumors were mechanically dissociated into fragments for cryopreservation or additional passage in mice.
(§3) For efficacy studies, PDX tumors were aseptically harvested from passaging mice and minced into fragments approximately 2 mm in diameter. The PDX tumor fragments were transplanted into the right flank of naïve 7-10-week old NOD-SCID mice.
(§4) Tumor growth was initially followed by palpability with measurements beginning once tumor volumes reached about 30 mm^3. Studies were randomized based on tumor size once a cohort of tumor-bearing mice reached an average of 200 mm^3. Animals were then dosed by intravenous injection of test ADCs once every four days (day 1, 5, 9, and 13) for four total doses (q4d×4). For each tumor measurement taken at regular intervals the tumor volume was calculated and an average tumor size +/− the standard error of the mean (SEM) was derived per cohort of surviving animals to determine tumor growth rates. In some studies, a “waterfall plot” was derived by calculating the maximum observed percent difference in tumor volume from the starting volume post the final dose of ADC. […]

[8] = test system: head and neck cancer model PDX-HNX-24715; assay: PDX tumor growth versus standard of care; format: in vivo, mouse; settings: 5 mg/kg
Procedure: as §2, §3, §4

CC[C@H](C)[C@@H]([C@@H](CC(=O)N1CCC[C@H]1[C@H](OC)[C@@H](C)C(=O)N[C@@H](Cc1ccccc1)c1nccs1)OC)N(C)C(=O)[C@@H](NC(=O)C(C)(C)N)C(C)C [Aur0101, 2-methylalanyl-N-[(3R,4S,5S)-3-methoxy-1-{(2S)-2-[(1R,2R)-1-methoxy-2-methyl-3-oxo-3-{[(1S)-2-phenyl-1-(1,3-thiazol-2-yl)ethyl]amino}propyl]pyrrolidin-1-yl}-5-methyl-1-oxoheptan-4-yl]-N-methyl-L-valinamide] (H-[Aib]V[Dil][Dolaproine]-Doe)
IC50 [1]: 0.116 nM | IC50 [2]: 0.202 nM | IC50 [3]: 0.176 nM | IC50 [4]: 0.0373 nM | IC50 [5]: 0.0636 nM | IC50 [6]: 0.047 nM

CC(=O)O[C@H]1C(=O)[C@@]2(C)[C@H]([C@H](OC(=O)c3ccccc3)[C@]3(O)C[C@H](OC(=O)[C@H](O)[C@@H](NC(=O)c4ccccc4)c4ccccc4)C(C)=C1C3(C)C)[C@]1(OC(C)=O)CO[C@@H]1C[C@@H]2O [Paclitaxel, reference compound]
average tumor size at day 35 [7]: doubled | day by which all mice had been sacrificed due to excessive tumor growth [7]: ≤ 42 days

N.N.[Cl][Pt][Cl] [cisplatin, reference compound]
tumor size at day 25 [8]: more than doubled in size
